Tested on: rats of a collagen-induced arthritis model
Experiment: Suppression of both-hindlimb edema in rats of a collagen-induced arthritis model
Type: in vivo, rat
Conditions: 30 days after initial sensitization, pyridazinone 30 mg/kg twice daily, methotrexate 0.05 mg/kg once daily
Protocol: The effect on suppressing edema of both hindlimbs by 2-benzyl-5-(4-chlorophenyl)-6-4-(methylthio)phenyl]-2H-pyridazin-3-one (synthesized through the aforementioned method) and methotrexate were determined both in the cases of combined administration and solo administration through the following procedure. For the experiment-rats of a collagen-induced arthritis model were used. (FDA, CBER, CDER, CDRH: Guidance for industry—Clinical development programs for drugs devices and biological products for the treatment of rheumatoid arthritis (RA)-(1999)). Lewis female rats (LFW/Crj) (obtained from Charles River Laboratories Japan, Inc.) were employed as test animals.
For each 8-week-old LEW/Crj rat, the volume of a portion from the ankle to the toe tip of each hindlimb was measured by means of a plethysmometer for small animals (TK-101CMP, product of Unicom) and the total volume was employed as a volume of the hindlimbs (hereinafter referred to as both-hindlimb volume) at the start of the test (hereinafter referred to as Pre value). By use of the Pre value as an index, the rats were divided into groups by one-parameter-based block randomization so that the values in the groups were averaged out.
The collagen emulsion for sensitization employed for inducing arthritis in rats was prepared by homogenizing a 0.3% Type II collagen liquid (product of Collagen Research Center), adjuvant peptide (product of Peptide Institute, Inc.), and adjuvant incomplete Freund (product of DIFCO) by means of a Handy Micro Homogenizer (product of Microtec Nition) under cooling with ice. The thus-prepared emulsion was intracutaneously injected to 10 sites in the back of each rat at 0.1 mL/site, to thereby initially sensitize the rat. Seven days after initial sensitization the same emulsion (0.12 mL) was intracutaneously injected to the tail head of the rat for booster sensitization
Administration of medicines was carried out on the day after initial sensitizaton to day 29. To the 2-benzyl-5-(4-chlorophenyl)-68 4-(methylthio)phenyl]-2H-pyridazin-3-one solo administration group, the medicine was orally administered twice; in the morning (9:00 to 11:00) and in the evening (15:30 to 17:30) at a dose of 30 mg/kg. […]
Thirty days after initial sensitization, both-hindlimb volume was measured. Volume of both-hindlimb edema was calculated by subtracting the Pre value from the thus-measured value.
Table 1 and FIG. 1 show both-hindlimb edema volume of rats which was measured 30 days after initial sensitization where the rats were divided into the 2-benzyl-5-(4-chlorophenyl)-6-[4-(methylthio)phenyl]-2H-pyridazin-3-one solo administration group, the methotrexate solo administration group, and the combined administration group. […]

CSc1ccc(-c2nn(Cc3ccccc3)c(=O)cc2-c2ccc(Cl)cc2)cc1 [2-benzyl-5-(4-chlorophenyl)-6-[4-(methylthio)phenyl]-2H-pyridazin-3-one]
Both-hindlimb edema volume (oral administration from day after sensitization to day 29, average of seven rats ± standard error): 1.04 ± 0.32 mL | Edema suppression effect (in words) (oral): did not result in potent edema suppression effects | Relative index (average edema volume of administration group / control group) (oral): 0.66 | Percent edema suppression (vs control group, oral): 34%

Reference: patent US20070270431A1, “Preventive and/or Therapeutic Medicine for Rheumatoid Arthritis” (Kowa Co., Ltd., priority 2004, published 2007)
